These results are taken from patent US9468670B2, “Melatonin-based treatment and diagnosis of bile duct disease” (Texas A&M University System, priority 2011, dated 2016).

A value given as a limit tells only on which side of the number the result lay.

The nature of data set [1]: Liver and body weight of nude mice bearing Mz-ChA-1 tumors. The settings on record: 4 mg/kg BW IP three times a week. It counts as in vivo, nude (nu/nu) mice. On the procedure: Experiments were performed to evaluate the in vivo effect of melatonin on the growth of cholangiocarcinoma cell lines implanted in the flanks of athymic mice (Francis H et al., 2009). Male BALB/c 6-wk-old nude (nu/nu) mice (Taconic Farms. Hudson, N.Y.) were kept in a temperature-controlled environment (20-22° C.) with 12-hr light-dark cycles, fed ad libitum standard mouse chow, and with free access to drinking water. Mz-ChA-1 cells (5×10^6) were suspended in 0.2 ml of extracellular matrix gel and injected subcutaneously in the rear flanks of the nude mice. After the establishment of the tumor (one week with a tumor size of ˜5 mm^3) mice (n=4) were treated with vehicle (5% ethanol in water) or melatonin (4 mg/kg BW, dissolved in 5% aqueous ethanol solution) (Sewerynek et al., 1995) by IP injections three times a week. Tumor variables were measured three times a week by an electronic caliper, and volume was determined as follows: tumor volume (mm^3)=0.5×[length (mm)×width (mm)×height (mm)]. The measurements started from the first week when the tumor mass was established. After 43 days of treatment, were anesthetized with sodium pentobarbital (50 mg/kg BW IP) and tumor tissues were harvested from the flanks of the mice. Heart, liver, and kidney tissues were collected for evaluation of organ damage by H&E staining of paraffin-embedded sections ([…]). All experiments were conducted under the guidelines of the Scott & White and Texas A&M HSC IACUC Committee. Tumors were allowed to grow until maximum allowable tumor burden was reached as set forth by the Scott & White and Texas A&M HSC IACUC tumor burden policy. Tumor tissues were fixed for 4 hr in 10% buffered formalin and embedded in low-temperature fusion paraffin. […] Semiquantitative analysis for these markers was evaluated by image-analysis software, Image-Pro Plus (Media Cybernetics, Silver Springs, Md.) (Lejeune et al., 2008). Three randomly chosen fields were calculated for statistics.

For data set [2] the following is noted: rat, in vivo, 1 mg/kg/day. The procedure:
(§1) In separate experiments, normal rats treated with Vivo-Morpholino sequences of AANAT (5′-[…] (SEQ ID NO:1), to reduce the biliary expression of AANAT) or Morpholino mismatched (5′-[…] (SEQ ID NO:2)) (Gene Tools LCC) (1 mg/Kg BW/day) for 1 week via an implanted portal vein catheter. Serum, liver tissue, cholangiocytes, kidney, spleen, small intestine, stomach and heart were collected. Since our goal was to knock-down AANAT expression in the liver without inhibiting AANAT expression in other organs, we used a lower dose (1 mg/Kg/day) of Vivo-Morpholino than that described in the original study (3.0 mg/kg/day (Arora et al., 2002). This approach minimizes the amount of Vivo-Morpholino that circulates outside of the liver after slow infusion into the portal vein. See below for the surgical procedure for the implantation of the portal vein catheter by which AANAT Vivo-Morpholino or Morpholino mismatched was administered.
Biliary proliferation was determined by measurement of the percentage of PCNA-positive cholangiocytes by immunohistochemistry, and intrahepatic bile duct mass (IBDM) by immunohistochemistry for CK-19 (Mancinelli et al., 2010). Biliary apoptosis was evaluated by semiquantitative terminal deoxynucleotidyltransferase biotin-dUTP nick-end labeling (TUNEL) kit (Chemicon International, Inc., Temecula, Calif.) (Mancinelli et al., 2010). IBDM was determined as the area occupied by CK-19 positive-bile duct/total area×100 (Mancinelli et al., 2010). The morphological changes/damage in liver, spleen, kidney, heart, stomach, and small intestine were evaluated from AANAT Vivo-Morpholino- or mismatch-treated rats by H&E staining. The serum levels of the transaminases, glutamate pyruvate transaminases (SGPT) and glutamic oxaloacetic transaminase (SGOT), alkaline phosphatase (ALP) and total bilirubin were evaluated using a Dimension RxL Max Integrated Chemistry system (Dade Behring Inc., Deerfield Ill.), Chemistry Department, Scott & White.

The test system of data set [3] is SR, CFTR, Cl−/HCO3− AE2, VEGF-A/C. Put plainly: Expression of PCNA, SR, CFTR, Cl−/HCO3− AE2, VEGF-A/C in liver sections, liver tissue and cholangiocytes of Morpholino-treated rats. It counts as in vivo, rat. Conditions: normal rats, 1 week. On the procedure: as §1
By real-time PCR (Francis et al., 2008), the expression of PCNA, SR, CFTR, Cl^−/HCO3^− AE2, VEGF-A/C was evaluated in total RNA from: (i) cholangiocytes from normal rats, and BDL rats treated with melatonin; and (ii) liver tissue and cholangiocytes from rats treated with mismatch or AANAT Vivo-Morpholino for 1 week. A ΔΔCT analysis was obtained using normal cholangiocytes or normal total liver as control samples (Francis et al., 2008). The primers for rat PCNA, SR, CFTR, Cl^−/HCO3^− AE2, VEGF-A/C (SABiosciences) were designed according to the NCBI GenBank Accession numbers: NM_022381 (PCNA); NM_031115 (SR); NM_017048 (Cl^−/HCO3^− AE2); XM_001059206 (CFTR); NM_031836 (VEGF-A); and NM_053653 (VEGF-C). The percentage of cholangiocytes positive for SR, CFTR, Cl^−/HCO3^− AE2 and VEGF-A/C was evaluated in liver sections: when 0%-5% of bile ducts were positive a negative score was assigned; a +/−score was assigned when 6%-10% of ducts were positive; a +score was assigned when 11%-30% of bile ducts were positive (Glaser et al., 2009).

`COc1ccc2[nH]cc(CCNC(C)=O)c2c1` [melatonin]: in data set [1], the Body weight is 35.25 ± 0.73 gm, the Liver to body is 8.01% ± 0.21 and the Liver weight is recorded as 2.82 ± 0.13 gm.
In data set [2], “AANAT Vivo-Morpholino: Vivo-Morpholino sequence of AANAT 5′-GTTCCCCAGCTTTGGAAGTGGTCCC (SEQ ID NO:1), to reduce the biliary expression of AANAT (all phosphorodiamidate morpholino (PMO); Vivo-Morpholino delivery moiety attached, position not given here, further chemistry not fully specified)” showed an ALP of 230.2 ± 5.2 Units/L, an SGOT of 148.5 ± 22.5 Units/L, an SGPT of 72.25 ± 0.2 Units/L and a Total bilirubin below 0.1 mg/L. In addition, in data set [3], the “Immunoreactivity of cholangiocytes to CFTR” value was “+ (a +score was assigned when 11%-30% of bile ducts were positive)”, the “Immunoreactivity of cholangiocytes to Cl−HCO3− AE2” value is listed as “+ (a +score was assigned when 11%-30% of bile ducts were positive)”, the “Immunoreactivity of cholangiocytes to SR” value was “+ (a +score was assigned when 11%-30% of bile ducts were positive)” and the “Immunoreactivity of cholangiocytes to VEGF-A” value is on record as “+ (a +score was assigned when 11%-30% of bile ducts were positive)”. Moreover, the “Immunoreactivity of cholangiocytes to VEGF-C” value in data set [3] was “+ (a +score was assigned when 11%-30% of bile ducts were positive)”.
